The values that follow come from ChEMBL document CHEMBL1137252, “Substituted 5-benzyl-2-phenyl-5H-imidazo[4,5-c]pyridines: a new class of pestivirus inhibitors” (Bioorg Med Chem Lett, 2006).

The nature of series [1]: Cytotoxicity against MDBK cells. Type of series: cell-based, Bos taurus. The settings on record: cattle.
The next series has as its system Hepatitis C virus. In words: Antiviral activity against HCV 1a. Type of series: functional, organism-based. To be noted: Hepacivirus hominis; subtype 1a.
Series [2] is described as follows: Selectivity index, CC50 for MDBK cells/EC50 for BVDV NADL. Type of series: functional.
Series [3] deals with Bovine viral diarrhea virus 1. In words: Antiviral activity against BVDV NADL in MDBK cells. Type of series: functional, organism-based. The settings on record: Bovine viral diarrhea virus isolates and strains.

Activity calls are given as the source filed them. How the calls were made is not given here.

As a reminder, the CC50 is the concentration that lowers cell viability or growth by half. Lower therefore signals greater toxicity to the cells. In general, EC50 refers to the concentration needed to bring the measured effect to its halfway point. Regarding `FC(F)(F)c1cccc(Cn2ccc3nc(-c4ccccc4)nc-3c2)c1`, the midpoint of cytotoxicity in series [1], the CC50, lay at 98 µM. Besides, the result in the series on Hepatitis C virus was inactive. Also, the “Ratio CC50/EC50” value in series [2] was 408. In addition, the EC50 in series [3] came to 0.24 µM.

On to `Fc1cccc(F)c1Cn1cccc2nc(-c3c(F)cccc3F)nc1-2`, for which the 50% cytotoxic concentration (CC50) in series [1] is > 100 µM. The result in the series with Hepatitis C virus was inactive. Moreover, in series [2], the “Ratio CC50/EC50” value is reported as “<=3”. For the same compound, in series [3], the EC50 is ≥ 32 µM.

Take `CC(C)(C)c1ccc(Cn2ccc3nc(-c4ccccc4)nc-3c2)cc1`: it took 22 µM to reach half-maximal cytotoxicity in series [1] (CC50). For the same compound, the outcome in the series on Hepatitis C virus was inactive. The “Ratio CC50/EC50” value in series [2] came to 45. In series [3], the midpoint of the response, the EC50, lay at 0.49 µM.

For the compound `c1ccc(-c2nc3ccn(Cc4ccncc4)cc-3n2)cc1`, the 50% cytotoxic concentration (CC50) in series [1] is > 100 µM. In addition, the outcome in the series with Hepatitis C virus was inactive. Besides, the “Ratio CC50/EC50” value in series [2] was >50. In series [3], the response was half-maximal at 2 µM (EC50).

As to `CCn1ccc2nc(-c3ccccc3)nc-2c1`, the CC50 in series [1] was > 100 µM. The outcome with Hepatitis C virus was inactive. In series [2], the “Ratio CC50/EC50” value is listed as >7. In addition, in series [3], the midpoint of the response, the EC50, lay at 15 µM.

With `Clc1ccccc1Cn1ccc2nc(-c3ccccc3)nc-2c1`, in series [1], the half-maximal cytotoxic concentration (CC50) was > 100 µM. Moreover, the result in the series on Hepatitis C virus was inactive. For the same compound, in series [2], the “Ratio CC50/EC50” value is recorded as >526. This compound registered a concentration giving a half-maximal response (EC50) in series [3] of 0.19 µM.

As to `COc1ccc(Cn2ccc3nc(-c4ccccc4)nc-3c2)cc1`, in series [1], the 50% cytotoxic concentration (CC50) is > 100 µM. Besides, in the series on Hepatitis C virus, the outcome was inactive. Also, the “Ratio CC50/EC50” value in series [2] was >714. The half-maximal effective concentration (EC50) in series [3] was 0.14 µM.

For the compound `CC(C)N(CCn1ccc2nc(-c3ccccc3)nc-2c1)C(C)C`, in series [1], the CC50 is > 100 µM. In the series with Hepatitis C virus, the result was inactive. Besides, the “Ratio CC50/EC50” value in series [2] is >45. This compound also displayed a 50% effective concentration (EC50) in series [3] of 2.2 µM.

In series [1], `c1ccc(-c2ccc(Cn3ccc4nc(-c5ccccc5)nc-4c3)cc2)cc1` had a CC50 of 18 µM. The result in the series on Hepatitis C virus was inactive. In addition, the “Ratio CC50/EC50” value in series [2] turned out to be 225. In series [3], this compound showed an EC50 of 0.08 µM.
